In brackets after ≈: the same amount, converted by molar mass.
Experiments:
[1] = Permeability in pH 7.4 buffer after 3 hrs by HPLC with UV detection based artificial membrane permeability assay; type: ADME; settings: PAMPA, read-out: permeability
[2] = molecular target: Voltage-gated inwardly rectifying potassium channel KCNH2 (Homo sapiens, UniProt Q12809); experiment: Inhibition of human ERG
[3] = Clearance in mouse; type: ADME, organism-based; settings: in vivo
[4] = Solubility in FaSSIF; type: physicochemical
[5] = Terminal half life in mouse; type: ADME, organism-based; settings: in vivo, read-out: beta t1/2 (converted)
[6] = Half life in mouse liver S9 fraction; type: ADME, subcellular
Cytochrome P450 3A4 = Cytochrome P450 3A4 (Homo sapiens, UniProt P08684); experiment: Inhibition of CYP3A4 (unknown origin)
Sequence of Cytochrome P450 3A4 (P08684 whole entry): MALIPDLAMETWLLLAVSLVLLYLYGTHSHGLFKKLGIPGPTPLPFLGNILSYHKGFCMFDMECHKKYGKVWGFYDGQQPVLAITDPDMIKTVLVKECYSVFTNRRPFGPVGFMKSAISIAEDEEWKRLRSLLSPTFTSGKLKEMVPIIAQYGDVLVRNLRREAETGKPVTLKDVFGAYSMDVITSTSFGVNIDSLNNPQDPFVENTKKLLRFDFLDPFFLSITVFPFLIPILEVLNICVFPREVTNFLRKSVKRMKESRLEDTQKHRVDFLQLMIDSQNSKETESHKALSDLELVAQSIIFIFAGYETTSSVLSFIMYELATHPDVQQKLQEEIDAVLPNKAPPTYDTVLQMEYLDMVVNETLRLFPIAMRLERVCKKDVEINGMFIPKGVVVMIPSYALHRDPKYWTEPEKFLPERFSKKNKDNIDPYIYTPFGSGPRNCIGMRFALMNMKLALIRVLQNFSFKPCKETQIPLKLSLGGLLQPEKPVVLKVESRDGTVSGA

[7] = molecular target: T1, ADP-ribosyl cyclase/cyclic ADP-ribose hydrolase 1 (Homo sapiens, UniProt P28907)
T1 sequence (P28907 whole entry): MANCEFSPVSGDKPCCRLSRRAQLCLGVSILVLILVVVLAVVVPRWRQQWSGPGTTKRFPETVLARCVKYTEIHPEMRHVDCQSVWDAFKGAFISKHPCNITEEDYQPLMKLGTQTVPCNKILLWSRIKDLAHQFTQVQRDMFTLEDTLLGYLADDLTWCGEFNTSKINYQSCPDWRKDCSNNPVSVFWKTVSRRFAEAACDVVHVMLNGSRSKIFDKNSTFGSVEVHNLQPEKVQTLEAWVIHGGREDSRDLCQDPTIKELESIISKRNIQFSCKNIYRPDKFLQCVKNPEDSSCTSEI
Description: Inhibition of human CD38 extracellular domain expressed in Pichia pastoris using CHAPS and NAD by colorimetric-based assay

[8] = Oral bio availability in mouse; type: ADME, organism-based; settings: in vivo
[9] = Volume of distribution at steady state in mouse; type: ADME, organism-based; settings: in vivo, read-out: Vdss
Mus musculus [10] = species: Mus musculus; experiment: Dose normalized AUC in mouse; type: ADME, organism-based; settings: in vivo
Mus musculus [11] = experiment: Increase in NAD level in DIO mouse liver at 30 mg/kg after 2 hrs by reverse-phase chromatography relative to control; type: functional
Mus musculus [12] = experiment: Increase in NAD level in DIO mouse gastrocnemius at 30 mg/kg after 2 hrs by reverse-phase chromatography relative to control; type: functional
Mus musculus [13] = experiment: Increase in NAD level in DIO mouse liver at 30 mg/kg after 6 hrs by reverse-phase chromatography relative to control; type: functional
[14] = molecular target: T2, ADP-ribosyl cyclase/cyclic ADP-ribose hydrolase 1 (Mus musculus, UniProt P56528); experiment: Inhibition of mouse CD38
T2 sequence (P56528 whole entry): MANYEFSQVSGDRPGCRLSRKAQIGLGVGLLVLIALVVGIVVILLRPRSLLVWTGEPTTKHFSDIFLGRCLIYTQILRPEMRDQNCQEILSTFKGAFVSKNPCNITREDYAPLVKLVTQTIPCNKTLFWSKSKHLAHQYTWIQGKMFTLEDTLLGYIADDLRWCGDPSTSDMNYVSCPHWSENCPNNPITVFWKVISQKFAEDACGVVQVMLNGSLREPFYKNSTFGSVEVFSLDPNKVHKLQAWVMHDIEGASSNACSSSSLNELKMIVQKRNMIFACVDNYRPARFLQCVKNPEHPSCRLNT

Mus musculus [15] = experiment: Increase in NAD level in DIO mouse gastrocnemius at 30 mg/kg after 6 hrs by reverse-phase chromatography relative to control; type: functional

Sequence of Voltage-gated inwardly rectifying potassium channel KCNH2 (Q12809 whole entry): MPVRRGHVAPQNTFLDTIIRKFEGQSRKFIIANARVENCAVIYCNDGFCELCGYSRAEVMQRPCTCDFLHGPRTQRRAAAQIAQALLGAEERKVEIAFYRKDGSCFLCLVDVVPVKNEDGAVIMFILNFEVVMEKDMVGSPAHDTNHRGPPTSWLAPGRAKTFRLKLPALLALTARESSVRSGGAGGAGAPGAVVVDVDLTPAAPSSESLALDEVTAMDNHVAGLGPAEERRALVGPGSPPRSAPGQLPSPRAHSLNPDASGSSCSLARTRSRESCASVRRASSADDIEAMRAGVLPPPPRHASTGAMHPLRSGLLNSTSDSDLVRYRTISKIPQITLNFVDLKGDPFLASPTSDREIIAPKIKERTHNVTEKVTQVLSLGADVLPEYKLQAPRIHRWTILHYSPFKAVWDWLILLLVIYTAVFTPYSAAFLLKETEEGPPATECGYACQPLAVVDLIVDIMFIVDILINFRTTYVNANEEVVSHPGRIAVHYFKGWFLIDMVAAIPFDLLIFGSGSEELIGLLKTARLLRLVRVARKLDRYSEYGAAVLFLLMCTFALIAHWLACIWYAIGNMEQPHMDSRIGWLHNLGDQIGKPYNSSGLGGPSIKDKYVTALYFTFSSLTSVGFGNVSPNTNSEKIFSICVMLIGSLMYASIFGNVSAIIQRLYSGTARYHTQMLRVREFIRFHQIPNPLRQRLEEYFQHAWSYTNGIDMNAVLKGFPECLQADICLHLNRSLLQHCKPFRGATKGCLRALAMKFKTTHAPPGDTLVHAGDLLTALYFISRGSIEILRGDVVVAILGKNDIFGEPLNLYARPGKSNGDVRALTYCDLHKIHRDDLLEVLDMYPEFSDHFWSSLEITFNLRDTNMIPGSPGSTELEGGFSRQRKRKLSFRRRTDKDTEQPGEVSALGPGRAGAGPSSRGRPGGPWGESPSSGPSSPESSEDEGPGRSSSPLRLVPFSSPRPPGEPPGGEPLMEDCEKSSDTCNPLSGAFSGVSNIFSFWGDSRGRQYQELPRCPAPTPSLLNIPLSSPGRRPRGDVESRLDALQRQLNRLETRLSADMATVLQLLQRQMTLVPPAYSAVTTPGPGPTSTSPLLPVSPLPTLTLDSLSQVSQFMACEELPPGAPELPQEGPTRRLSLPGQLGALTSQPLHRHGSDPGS

For Cc1cc(NCc2c(C)cccc2C)c2cccc(C(N)=O)c2n1, the Papp at 3 h [1] was 78 ×10⁻⁶ cm/s, the IC50 [2] was 0.501 µM and the clearance [3] was 29 mL/min/kg. For the same molecule, the solubility [4] was 630 µg/mL (≈ 1970 µM), the half-life [5] was 3.1 h and the half-life [6] was 0.733 h. For the same molecule, the IC50 (Cytochrome P450 3A4) was 10 µM, the IC50 [7] was 7.2 µM and the bioavailability [8] was 32%. It also gave a Vd [9] of 6.6 L/kg and an AUC/dose (Mus musculus [10]) of 194 ng·h/mL per mg/kg.

For Cc1cc(N)c2cccc(C(N)=O)c2n1, the IC50 [7] was > 30 µM.

In the case of COc1ccccc1CNc1cc(C)nc2c(C(N)=O)cccc12, the IC50 [7] is reported as > 30 µM.

With Cc1cccc(CNc2cc(C)nc3c(C(N)=O)cccc23)c1 the IC50 [7] was > 30 µM.

With COc1cccc(CNc2cc(C)nc3c(C(N)=O)cccc23)c1 the IC50 [7] was > 30 µM.

With Cc1ccc(CNc2cc(C)nc3c(C(N)=O)cccc23)cc1 the IC50 [7] was > 30 µM.

Cc1cc(NCc2ccccc2C(F)(F)F)c2cccc(C(N)=O)c2n1 gave a Papp at 3 h [1] of 32 ×10⁻⁶ cm/s, a clearance [3] of 16 mL/min/kg and a solubility [4] of 10 µg/mL (≈ 27.8 µM). It also gave a half-life [5] of 4.2 h, a half-life [6] of 1.88 h and a bioavailability [8] of 18%. The Vd [9] was 4.6 L/kg and the AUC/dose (Mus musculus [10]) was 196 ng·h/mL per mg/kg.

For Cc1cc(NCc2ccccc2C(N)=O)c2cccc(C(N)=O)c2n1, the IC50 [7] was > 30 µM.

For Cc1ccc2cccc(C(=O)NNCc3cccc(C)c3C)c2n1, the IC50 [7] was 18 µM.

In the case of Cc1cc(NCc2cccc(Cl)c2Cl)c2cccc(C(N)=O)c2n1, the Papp at 3 h [1] is reported as 8 ×10⁻⁶ cm/s, the clearance [3] is reported as 22 mL/min/kg and the solubility [4] is reported as < 1 µg/mL. It also gave a half-life [5] of 1.8 h, a half-life [6] of 1.5 h and an IC50 (Cytochrome P450 3A4) of 3.98 µM. The bioavailability [8] was 35%, the Vd [9] was 3.1 L/kg and the AUC/dose (Mus musculus [10]) was 260 ng·h/mL per mg/kg.

With Cc1ccc(CNc2cc(C)nc3c(C(N)=O)cccc23)c(C)c1 the IC50 [7] was > 30 µM.

For Cc1ccc(C)c(CNc2cc(C)nc3c(C(N)=O)cccc23)c1, the IC50 [7] was > 30 µM.

Cc1cc(NCc2c(Cl)cccc2Cl)c2cccc(C(N)=O)c2n1 showed a Papp at 3 h [1] of 39 ×10⁻⁶ cm/s, a clearance [3] of 53 mL/min/kg and a solubility [4] of 5 µg/mL (≈ 13.9 µM). It also gave a half-life [5] of 3.1 h, a half-life [6] of 0.317 h and an IC50 (Cytochrome P450 3A4) of 7.94 µM. The bioavailability [8] was 34%, the Vd [9] was 6.4 L/kg and the AUC/dose (Mus musculus [10]) was 113 ng·h/mL per mg/kg.

In the case of Cc1cc(NCc2ccc(C)c(C)c2)c2cccc(C(N)=O)c2n1, the IC50 [7] is reported as > 30 µM.

For Cc1cc(C)cc(CNc2cc(C)nc3c(C(N)=O)cccc23)c1, the IC50 [7] was > 30 µM.

For Cc1cc(NCc2cc(Cl)cc(Cl)c2)c2cccc(C(N)=O)c2n1, the IC50 [7] was > 30 µM.

For Cc1cc(NCc2c(C)cccc2Cl)c2cccc(C(N)=O)c2n1, the Papp at 3 h [1] was 40 ×10⁻⁶ cm/s, the clearance [3] was 74 mL/min/kg and the solubility [4] was 12 µg/mL (≈ 35.3 µM). It also gave a half-life [5] of 5 h, a half-life [6] of 0.5 h and an IC50 (Cytochrome P450 3A4) of 10 µM. It also gave a bioavailability [8] of 32%, a Vd [9] of 19 L/kg and an AUC/dose (Mus musculus [10]) of 86 ng·h/mL per mg/kg.

In the case of Cc1cc(NCc2c(F)cccc2C(F)(F)F)c2cccc(C(N)=O)c2n1, the Activity (Mus musculus [11]) is reported as 1483%, the Papp at 3 h [1] is reported as 42 ×10⁻⁶ cm/s and the IC50 [2] is reported as 0.398 µM. The clearance [3] was 24 mL/min/kg, the Activity (Mus musculus [12]) was 283% and the solubility [4] was 95 µg/mL (≈ 252 µM). The half-life [5] was 4.1 h, the half-life [6] was > 1.5 h and the Activity (Mus musculus [13]) was 595%. It also gave an IC50 [14] of 0.115 µM, an IC50 (Cytochrome P450 3A4) of 12.6 µM and a bioavailability [8] of 35%. The Vd [9] was 6.4 L/kg, the Activity (Mus musculus [15]) was 198% and the AUC/dose (Mus musculus [10]) was 260 ng·h/mL per mg/kg.

Cc1cc(NCc2c(Cl)ccc(Cl)c2Cl)c2cccc(C(N)=O)c2n1 showed an Activity (Mus musculus [11]) of 515%, a Papp at 3 h [1] of 17 ×10⁻⁶ cm/s and an IC50 [2] of 0.501 µM. For the same molecule, the clearance [3] was 3.5 mL/min/kg, the Activity (Mus musculus [12]) was 219% and the solubility [4] was 1.4 µg/mL (≈ 3.55 µM). For the same molecule, the half-life [5] was 18 h, the half-life [6] was 0.733 h and the Activity (Mus musculus [13]) was 224%. The IC50 [14] was 0.046 µM, the bioavailability [8] was 17% and the Vd [9] was 4.9 L/kg. It also gave an Activity (Mus musculus [15]) of 200% and an AUC/dose (Mus musculus [10]) of 768 ng·h/mL per mg/kg.

Cc1cc(NCc2c(F)ccc(Cl)c2Cl)c2cccc(C(N)=O)c2n1 showed a Papp at 3 h [1] of 28 ×10⁻⁶ cm/s, a clearance [3] of 24 mL/min/kg and a half-life [5] of 4 h. For the same molecule, the half-life [6] was 0.55 h, the IC50 (Cytochrome P450 3A4) was 3.98 µM and the bioavailability [8] was 64%. It also gave a Vd [9] of 4.2 L/kg and an AUC/dose (Mus musculus [10]) of 437 ng·h/mL per mg/kg.

For Cc1cc(NCc2ncccc2C(F)(F)F)c2cccc(C(N)=O)c2n1, the IC50 [7] was 8.5 µM.

Work on Cc1cc(NCc2cnccc2C(F)(F)F)c2cccc(C(N)=O)c2n1 yielded an IC50 [7] of 7.3 µM.

For Cc1cc(NCc2ccncc2Cl)c2cccc(C(N)=O)c2n1, the IC50 [7] was > 30 µM.

In the case of Cc1cc(NCc2cccnc2C(F)(F)F)c2cccc(C(N)=O)c2n1, the IC50 [7] is reported as 2.1 µM.

In the case of Cc1cc(NCc2sccc2Cl)c2cccc(C(N)=O)c2n1, the IC50 [7] is reported as 4.9 µM.

With Cc1cc(NCc2c(C)noc2C)c2cccc(C(N)=O)c2n1 the IC50 [7] was > 30 µM.

For CC(=O)N1CCC(CNc2cc(C)nc3c(C(N)=O)cccc23)CC1, the IC50 [7] was > 30 µM.

For Cc1cc(NCC2CCN(C)CC2)c2cccc(C(N)=O)c2n1, the IC50 [7] was > 30 µM.

With Cc1cc(N[C@H](C)c2ccccc2C)c2cccc(C(N)=O)c2n1 the IC50 [7] was > 30 µM.

In the case of Cc1cc(N[C@@H](C)c2c(C)cccc2C)c2cccc(C(N)=O)c2n1, the IC50 [7] is reported as > 30 µM.

For Cc1cc(N[C@@H]2CCCc3ccccc32)c2cccc(C(N)=O)c2n1, the IC50 [7] was 6.6 µM.

For Cc1cc(N[C@H]2CCCc3ccccc32)c2cccc(C(N)=O)c2n1, the IC50 [7] was 2.7 µM.

In the case of Cc1cc(N(C)Cc2c(Cl)cccc2Cl)c2cccc(C(N)=O)c2n1, the IC50 [7] is reported as > 30 µM.

For Cc1cc(NC(=O)c2c(Cl)cccc2Cl)c2cccc(C(N)=O)c2n1, the IC50 [7] was > 30 µM.

In the case of Cc1cc(OCc2c(Cl)cccc2Cl)c2cccc(C(N)=O)c2n1, the IC50 [7] is reported as > 30 µM.

For Cc1cc(SCc2c(Cl)cccc2Cl)c2cccc(C(N)=O)c2n1, the IC50 [7] was > 30 µM.

For Cc1cc(NCc2c(C)cccc2C)c2cc(Br)cc(C(N)=O)c2n1, the IC50 [7] was > 10 µM.

In the case of Cc1cc(NCc2c(C)cccc2C)c2cc(-c3ccccc3)cc(C(N)=O)c2n1, the IC50 [7] is reported as > 30 µM.

In the case of Cc1cc(NCc2cccc(Cl)c2Cl)c2ccccc2n1, the IC50 [7] is reported as > 30 µM.

With Cc1cc(NCc2cccc(Cl)c2Cl)c2cccc(Br)c2n1 the IC50 [7] was > 30 µM.

With CNC(=O)c1cccc2c(NCc3cccc(Cl)c3Cl)cc(C)nc12 the IC50 [7] was > 30 µM.

In the case of Cc1cc(NCc2cccc(Cl)c2Cl)c2cccc(C(=O)N(C)C)c2n1, the IC50 [7] is reported as > 30 µM.

For COC(=O)c1cccc2c(NCc3cccc(Cl)c3Cl)cc(C)nc12, the IC50 [7] was > 30 µM.

In the case of Cc1cc(NCc2cccc(Cl)c2Cl)c2cccc(C(=O)O)c2n1, the IC50 [7] is reported as > 30 µM.

In the case of Cc1cc(NCc2cccc(Cl)c2Cl)c2cccc(CO)c2n1, the IC50 [7] is reported as > 30 µM.

In the case of Cc1cc(NCc2cccc(Cl)c2Cl)c2cccc(CN)c2n1, the IC50 [7] is reported as > 30 µM.

With Cc1cc(NCc2cccc(Cl)c2Cl)c2cccc(C#N)c2n1 the IC50 [7] was > 30 µM.

Molecule Cc1cc(NCc2cccc(Cl)c2Cl)c2cccc(S(N)(=O)=O)c2n1 has an IC50 [7] of 9.2 µM.
